Where a name gives a salt, the structure may show the parent alone.
Assays:
[1] = system: LOVO human colon cancer cell line; test: Cell proliferation assay (Cell titer glo); format: cell-based; conditions: LOVO cells, 72 hours
Experimental: In the present disclosure, cell assays were used to evaluate the biological activity of compounds. LOVO (Nanjing Cobioer), a human colon cancer cell line, was cultured in a Dulbecco's Modified Eagle's medium 96-well plate, supplemented with 10% fetal bovine serum and 1% P/S, and the culture environment was 37° C. and 5% CO2. Compound concentrations were ranged from 4.5 nM to 30 μM. The stock solution of the test compound was dissolved in DMSO and added to the medium at the indicated concentration, and incubated for 72 hours. Negative control cells were treated with vehicle only. In some experiments, known ATR inhibitors were added as positive controls. Cell viability was evaluated using the Cell titer glo kit (CTG, Promega) under the instructions of the product specification. The data were analyzed using Graphpad software, and IC50 values and compound fitting curves were obtained (Table 2).

[2] = biological target: ATR/ATRIP kinase (Homo sapiens (Human), UniProt Q13535); test: ATR enzyme assay (HTRF, phosphorylation of substrate protein P53); format: biochemical; conditions: substrate P53, TR-FRET
Experimental: In this experiment, the phosphorylation level of substrate protein P53 (Eurofins, 14-952) was detected by HTRF technology to measure the activity of ATR/ATRIP (Eurofins, 14-953) kinase. Reaction buffer (25 mM HEPES pH 8.0, 0.01% Brij-35, 1% Glycerol, 5 mM DTT, 1 mg/mL BSA), termination buffer (12.5 mM HEPES pH 8.0, 0.005% Brij-35, 0.5% Glycerol, 250 mM EDTA) and assay buffer (50 mM HEPES pH 7.0, 150 mM NaCl, 267 mM KF, 0.1% sodium cholate, 0.01% Tween 20) were prepared in advance. ATR/ATRIP was diluted with reaction buffer to a working solution of 2 ng/μL, and the substrate protein P53 was diluted with reaction buffer to a working solution of 80 nM, and 4 nM of ATP (Sigma, A2383) working solution (containing 40 mM MnCl2) was prepared with reaction buffer. The compound was 3-fold diluted with DMSO, then diluted with reaction buffer into a working solution, then added to a 384-well plate at 2.5 μL/well, and centrifuged at 1500 rpm for 40 s. Then 2.5 μL of ATR/ATRIP working solution, P53 working solution and ATP working solution were added into the 384-well plate, centrifuged at 1500 rpm for 40 s and reacted at room temperature for 30 minutes. After the reaction was completed, 5 μL of termination buffer was added to each well, and centrifuged at 1500 rpm for 40 s. Antibody working solution containing 0.083 μg/mL anti-phospho-p53 (Ser15)-K (CisBio, cat. 61P08KAE) and 5 μg/mL anti-GST-d2 (CisBio, cat. 61GSTDLA) was prepared with assay buffer and added to the 384-well plate at 5 μL/well, then centrifuged at 1500 rpm for 40 s and reacted overnight at room temperature. Microplate reader (Tecan, Infinite M1000 Pro) was used to detect TR-FRET, and the data were analyzed with Graphpad software, and the four-parameter equation was used to fit the curve and calculate the IC50 value of the inhibitor (Table 1).

[3] = system: OCI-LY19 human B-cell lymphoma; test: In vivo drug efficacy, OCI-LY19 human B-cell lymphoma mouse subcutaneous xenograft tumor model; conditions: Group 2, 20 mg/kg p.o. once a day
Experimental: Cell culture: Human B-cell lymphoma OCI-LY19 cells were maintained as a monolayer in MEM-α medium containing 10% fetal bovine serum in a constant temperature incubator at 37° C. with 5% CO2. Tumor cells were subcultured twice a week. Cells in exponential growth phase were harvested and counted for inoculation.
Experimental animals: BALB/c nude mice, 6-8 weeks old, 19-22 g, purchased from Beijing Vital River Laboratory Animal Technology Co., Ltd.
For Vehicle, positive control (AZD6738, CAS number: 1352226-88-0) and compound 2, a total of 6 experimental groups were set up, as shown in Table 5 below:
Experimental method: The OCI-LY19 cell line (3.0×10^6 cells/mouse) was inoculated subcutaneously on the right back of the experimental mouse, and the inoculation volume of each mouse was 0.1 mL, and the growth of tumors was observed regularly, and until the tumor grew to about 100 mm^3, the mice were randomly divided into groups according to the tumor size and body weight, and administered according to the administration plan shown in Table 5, and the mouse body weight and tumor size were measured twice a week during the whole experiment.
tumor volume (mm^3)=0.5×(tumor long diameter×tumor short diameter^2). Tumor size calculation formula: […]

ATR/ATRIP kinase, sequence (Q13535 whole entry): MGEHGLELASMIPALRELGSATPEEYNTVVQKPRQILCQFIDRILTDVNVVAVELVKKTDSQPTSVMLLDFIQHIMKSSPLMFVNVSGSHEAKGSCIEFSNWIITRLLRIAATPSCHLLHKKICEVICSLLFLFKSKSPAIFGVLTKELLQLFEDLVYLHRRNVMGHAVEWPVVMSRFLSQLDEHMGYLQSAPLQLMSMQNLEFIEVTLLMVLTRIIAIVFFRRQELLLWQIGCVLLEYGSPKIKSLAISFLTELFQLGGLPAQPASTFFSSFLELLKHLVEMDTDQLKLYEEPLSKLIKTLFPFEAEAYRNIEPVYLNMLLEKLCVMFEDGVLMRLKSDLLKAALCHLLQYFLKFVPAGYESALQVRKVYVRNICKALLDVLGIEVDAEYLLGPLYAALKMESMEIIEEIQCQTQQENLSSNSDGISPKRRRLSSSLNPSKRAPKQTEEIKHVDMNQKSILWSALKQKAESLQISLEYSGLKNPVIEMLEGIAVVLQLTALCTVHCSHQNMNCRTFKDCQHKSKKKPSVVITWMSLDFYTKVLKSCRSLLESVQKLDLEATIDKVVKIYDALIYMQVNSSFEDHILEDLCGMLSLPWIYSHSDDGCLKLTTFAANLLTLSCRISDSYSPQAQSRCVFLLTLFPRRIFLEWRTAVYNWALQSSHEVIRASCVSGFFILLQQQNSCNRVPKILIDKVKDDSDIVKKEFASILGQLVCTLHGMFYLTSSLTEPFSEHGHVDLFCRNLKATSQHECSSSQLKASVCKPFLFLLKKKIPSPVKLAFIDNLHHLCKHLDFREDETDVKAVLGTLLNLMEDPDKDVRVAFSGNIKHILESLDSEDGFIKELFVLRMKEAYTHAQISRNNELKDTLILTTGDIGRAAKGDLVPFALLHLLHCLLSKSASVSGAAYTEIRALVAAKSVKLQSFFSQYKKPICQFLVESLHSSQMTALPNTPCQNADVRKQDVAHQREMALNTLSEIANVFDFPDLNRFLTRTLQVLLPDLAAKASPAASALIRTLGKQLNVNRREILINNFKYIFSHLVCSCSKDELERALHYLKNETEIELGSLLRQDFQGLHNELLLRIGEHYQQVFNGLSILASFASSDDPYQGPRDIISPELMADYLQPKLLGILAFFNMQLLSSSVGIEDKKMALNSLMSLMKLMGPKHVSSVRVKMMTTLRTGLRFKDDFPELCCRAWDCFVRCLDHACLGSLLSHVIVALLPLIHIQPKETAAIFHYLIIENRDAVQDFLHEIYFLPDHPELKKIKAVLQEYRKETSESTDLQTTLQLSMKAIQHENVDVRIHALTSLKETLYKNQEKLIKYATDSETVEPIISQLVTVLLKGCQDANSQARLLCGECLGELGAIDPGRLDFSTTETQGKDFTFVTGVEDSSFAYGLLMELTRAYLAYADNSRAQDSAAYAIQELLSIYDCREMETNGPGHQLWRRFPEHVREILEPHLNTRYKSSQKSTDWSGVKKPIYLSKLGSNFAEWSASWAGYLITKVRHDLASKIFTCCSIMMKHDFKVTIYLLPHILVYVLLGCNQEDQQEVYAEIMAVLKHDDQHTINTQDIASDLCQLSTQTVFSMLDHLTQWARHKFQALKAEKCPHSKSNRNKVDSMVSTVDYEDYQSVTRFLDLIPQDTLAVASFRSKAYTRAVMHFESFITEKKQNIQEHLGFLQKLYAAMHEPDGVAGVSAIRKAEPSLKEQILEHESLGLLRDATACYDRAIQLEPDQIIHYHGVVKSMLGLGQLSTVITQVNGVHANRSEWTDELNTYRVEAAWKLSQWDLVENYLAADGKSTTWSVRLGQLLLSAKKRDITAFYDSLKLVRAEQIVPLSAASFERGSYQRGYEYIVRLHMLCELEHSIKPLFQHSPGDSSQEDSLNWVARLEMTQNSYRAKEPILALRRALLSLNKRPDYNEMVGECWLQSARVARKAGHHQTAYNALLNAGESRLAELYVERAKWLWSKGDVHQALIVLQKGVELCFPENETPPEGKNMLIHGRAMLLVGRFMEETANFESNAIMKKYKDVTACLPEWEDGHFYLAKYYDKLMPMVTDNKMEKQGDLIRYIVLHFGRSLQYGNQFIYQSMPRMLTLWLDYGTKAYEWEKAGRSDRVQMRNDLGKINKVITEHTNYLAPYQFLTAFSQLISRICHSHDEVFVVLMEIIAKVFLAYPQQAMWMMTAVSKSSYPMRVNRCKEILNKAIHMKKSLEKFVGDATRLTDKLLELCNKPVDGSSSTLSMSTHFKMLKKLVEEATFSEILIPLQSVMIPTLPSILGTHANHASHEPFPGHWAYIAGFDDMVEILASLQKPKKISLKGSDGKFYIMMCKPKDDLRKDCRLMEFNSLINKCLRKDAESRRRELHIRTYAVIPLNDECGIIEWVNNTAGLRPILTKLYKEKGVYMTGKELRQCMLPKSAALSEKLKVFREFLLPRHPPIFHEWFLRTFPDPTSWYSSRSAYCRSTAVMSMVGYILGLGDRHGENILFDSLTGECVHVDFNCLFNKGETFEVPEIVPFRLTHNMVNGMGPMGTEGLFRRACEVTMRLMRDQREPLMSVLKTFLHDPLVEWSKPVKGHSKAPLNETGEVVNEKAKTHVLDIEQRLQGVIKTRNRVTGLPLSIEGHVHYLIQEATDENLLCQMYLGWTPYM
ATR/ATRIP kinase, sequence (Q8WXE1 whole entry partner): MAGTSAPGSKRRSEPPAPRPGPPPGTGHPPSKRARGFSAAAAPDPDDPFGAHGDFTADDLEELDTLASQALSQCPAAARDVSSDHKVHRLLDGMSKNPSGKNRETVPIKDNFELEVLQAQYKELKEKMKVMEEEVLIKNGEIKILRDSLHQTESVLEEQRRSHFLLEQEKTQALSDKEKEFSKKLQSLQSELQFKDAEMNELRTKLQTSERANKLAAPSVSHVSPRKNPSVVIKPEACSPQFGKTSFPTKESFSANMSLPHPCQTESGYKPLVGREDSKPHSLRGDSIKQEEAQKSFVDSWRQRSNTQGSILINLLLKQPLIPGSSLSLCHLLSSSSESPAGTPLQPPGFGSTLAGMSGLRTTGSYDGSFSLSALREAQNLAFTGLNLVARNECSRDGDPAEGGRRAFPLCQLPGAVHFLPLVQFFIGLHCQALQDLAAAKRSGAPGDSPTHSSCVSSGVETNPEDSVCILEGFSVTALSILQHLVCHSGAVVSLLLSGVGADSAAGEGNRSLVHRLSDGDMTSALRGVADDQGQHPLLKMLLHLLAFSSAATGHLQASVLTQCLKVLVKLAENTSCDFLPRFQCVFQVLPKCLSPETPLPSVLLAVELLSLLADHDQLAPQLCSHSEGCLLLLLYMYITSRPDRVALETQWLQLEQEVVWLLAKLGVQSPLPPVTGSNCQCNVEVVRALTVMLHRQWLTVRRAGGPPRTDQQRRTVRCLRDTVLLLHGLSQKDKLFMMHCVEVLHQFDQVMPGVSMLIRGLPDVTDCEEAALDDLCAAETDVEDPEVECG

IC50 [1] [nM] | IC50 [2] [nM] | Compound | other results
79.6 | 4.8 | C[C@@H]1COCCN1c1nc2c(cnn2-c2cc[nH]n2)c2c1CCN2S(=O)(=O)C(F)(F)F [Compound 6, (R)-4-(6-(1H-pyrazol-3-yl)-1-((trifluoromethyl)sulfonyl)-1,2,3,6-tetrahydropyrazolo[3,4-b]pyrrolo[2,3-d]pyridin-4-yl)-3-methylmorpholine trifluoroacetate] | –
93.7 | – | C[C@@H]1COCCN1c1nc2c(cnn2-c2cc[nH]n2)c2c1CCN2C [Compound 12, (R)-3-methyl-4-(1-methyl-6-(1H-pyrazol-3-yl)-tetrahydropyrazolo[3,4-b]pyrrolo[2,3-d]pyridin-4-yl)morpholine] | –
– | – | C[C@@H]1COCCN1c1cc(C2([S@](C)(=N)=O)CC2)nc(-c2cc[nH]c3nccc2-3)n1 [AZD6738, reference compound] | T/C (%) [3]: 31.2%; TGI (%) [3]: 72.1%; Tumor volume (10 days, mm^3) ([3]; 10 days): 108.23 ± 4.67 mm^3; Tumor volume (24 days, mm^3) ([3]; 24 days): 738.65 ± 257.29 mm^3
– | 1.8 | C[C@@H]1COCCN1c1nc2c(cnn2-c2cc[nH]n2)c2c1CCN2S(=O)(=O)N(C)C [Compound 4, (R)—N,N-dimethyl-4-(3-methylmorpholino)-6-(1H-pyrazol-3-yl)-2,3-dihydropyrazolo[3,4-b]pyrrolo[2,3-d]pyridine-1(6H)-sulfonamide trifluoroacetate] | –
262 | – | C[C@@H]1COCCN1c1nc2c(cnn2-c2cc[nH]n2)c2c1CCN2S(N)(=O)=O [Compound 5, (R)-4-(3-methylmorpholine)-6-(1H-pyrazol-3-yl)-2,3-dihydropyrazolo[3,4-b]pyrrolo[2,3-d]pyridine-1(6H)-sulfonamide] | –
406 | 46 | C[C@@H]1COCCN1c1nc2c(c(C#N)nn2-c2cc[nH]n2)c2c1CCN2S(C)(=O)=O [Compound 7, (R)-4-(3-methylmorpholinyl)-1-(methylsulfonyl)-6-(1H-pyrazol-3-yl)-1,2,3,6-tetrahydropyrazolo[3,4-b]pyrrolo[2,3-d]pyridine-8-carbonitrile] | –
72 | 5.9 | C[C@@H]1COCCN1c1nc2c(cnn2-c2cc[nH]n2)c2c1CCN2C1CC1 [Compound 11, (R)-4-(1-cyclopropyl-6-(1H-pyrazol-3-yl)-1,2,3,6-tetrahydropyrazolo[3,4-b]pyrrolo[2,3-d]pyridin-4-yl)-3-methylmorpholine] | –
32.3 | 40 | C[C@@H]1COCCN1c1nc2c(-c3cc[nH]n3)nccc2c2c1ccn2S(C)(=O)=O [Compound 8, (R)-3-methyl-4-(1-(methylsulfonyl)-6-(1H-pyrazol-3-yl)-1H-pyrrolo[3,2-c][1,7]naphthyridin-4-yl)morpholine] | –
– | 7.5 | C[C@@H]1COCCN1c1nc2c(cnn2-c2cc[nH]n2)c2c1CCN2c1cccnc1 [Compound 13, (R)-4-(6-(1H-pyrazol-3-yl)-1-(pyridin-3-yl)-1,2,3,6-tetrahydropyrazolo[3,4-b]pyrrolo[2,3-d]pyridin-4-yl)-3-methylmorpholine trifluoroacetate] | –

Source: patent publication US20240025899A1, “TRIHETEROCYCLIC DERIVATIVE, AND PHARMACEUTICAL COMPOSITION AND APPLICATION THEREOF” (SHANGHAI DE NOVO PHARMATECH CO., LTD., priority 2020, published 2024)
